Test results as given in ChEMBL document CHEMBL5247583, “Synthesis and evaluation of small molecule inhibitors of LSD1 for use against MYCN-expressing neuroblastoma” (Eur J Med Chem, 2022).
Activity calls are given as the source filed them. No cut-off for these calls is given here.

Assays:
[1] = target: Spermine oxidase (Homo sapiens) (UniProt Q9NWM0); assay: Inhibition of SMOX (unknown origin) at 50 uM using spermine as substrate preincubated for 1 hr followed by substrate addition and measured after 20 mins by luminometer analysis relative to control; settings: time 80.0 min
Chain of Spermine oxidase (Homo sapiens) (Q9NWM0 whole entry): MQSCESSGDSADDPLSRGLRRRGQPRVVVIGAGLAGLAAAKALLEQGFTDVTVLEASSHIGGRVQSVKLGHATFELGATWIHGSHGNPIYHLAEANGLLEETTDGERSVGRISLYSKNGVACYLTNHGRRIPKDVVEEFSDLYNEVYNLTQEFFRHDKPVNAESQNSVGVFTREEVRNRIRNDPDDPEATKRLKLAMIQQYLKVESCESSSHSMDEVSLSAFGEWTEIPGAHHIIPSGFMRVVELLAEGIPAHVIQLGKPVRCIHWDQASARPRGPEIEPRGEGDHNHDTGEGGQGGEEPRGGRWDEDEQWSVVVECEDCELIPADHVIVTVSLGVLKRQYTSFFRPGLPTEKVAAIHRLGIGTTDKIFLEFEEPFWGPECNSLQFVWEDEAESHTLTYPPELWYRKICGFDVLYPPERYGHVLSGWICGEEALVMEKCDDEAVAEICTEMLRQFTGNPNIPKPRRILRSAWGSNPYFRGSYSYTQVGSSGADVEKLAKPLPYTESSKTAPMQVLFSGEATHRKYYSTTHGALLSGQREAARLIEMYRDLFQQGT

IMR-32 [2] = assay: Cytotoxicity against human IMR-32 cells assessed as lethal concentration measured after 24 hrs in presence of bortezomib by cell titer glo assay; type: functional; settings: read-out: LC50 (the source's name)
IMR-32 [3] = assay: Upregulation of LSD1 expression level in human IMR-32 cells by DAPI staining based analysis; type: functional, cell-based
CHP-134 [4] = assay: Cytotoxicity against human CHP-134 cells assessed lethal concentration measured after 72 hrs by cell titer glo assay; type: functional; settings: read-out: LC50 (the source's name)
IMR-32 [5] = assay: Cytotoxicity against human IMR-32 cells assessed lethal concentration measured after 72 hrs by cell titer glo assay; type: functional; settings: read-out: LC50 (the source's name)
CHP-134 [6] = assay: Cytotoxicity against human CHP-134 cells measured after 24 hrs in presence of bortezomib by cell titer glo assay; type: functional, cell-based
CHP-134 [7] = assay: Cytotoxicity against human CHP-134 cells assessed as lethal concentration measured after 24 hrs in presence of bortezomib by cell titer glo assay; type: functional; settings: read-out: LC50 (the source's name)
[8] = target: T1, MAO-A (Amine oxidase [flavin-containing] A) (Homo sapiens, UniProt P21397); assay: Inhibition of recombinant MAO-A (unknown origin) at 1 uM using luciferin as substrate preincubated for 1 hr followed by substrate addition measured after 20 min by microplate reader analysis relative to control; settings: probe luciferin, time 80 min
T1 sequence (P21397 whole entry): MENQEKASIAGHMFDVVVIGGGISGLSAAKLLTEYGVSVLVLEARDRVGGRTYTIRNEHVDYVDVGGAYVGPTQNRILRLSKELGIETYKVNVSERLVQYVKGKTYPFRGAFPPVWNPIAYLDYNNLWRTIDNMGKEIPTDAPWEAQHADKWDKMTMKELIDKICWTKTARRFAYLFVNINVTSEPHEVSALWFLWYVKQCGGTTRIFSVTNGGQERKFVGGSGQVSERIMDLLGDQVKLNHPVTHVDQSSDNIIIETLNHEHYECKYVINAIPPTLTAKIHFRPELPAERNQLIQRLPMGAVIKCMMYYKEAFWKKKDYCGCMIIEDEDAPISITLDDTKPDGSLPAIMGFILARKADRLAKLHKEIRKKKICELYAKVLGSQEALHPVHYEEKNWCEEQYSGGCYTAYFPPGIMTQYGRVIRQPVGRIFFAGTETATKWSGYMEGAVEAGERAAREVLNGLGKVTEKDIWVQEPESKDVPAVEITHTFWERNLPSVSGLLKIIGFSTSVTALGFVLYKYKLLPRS

IMR-32 [9] = assay: Cytotoxicity against human IMR-32 cells assessed as lethal concentration measured after 24 hrs by cell titer glo assay; type: functional; settings: read-out: LC50 (the source's name)
CHP-134 [10] = assay: Cytotoxicity against human CHP-134 cells assessed as lethal concentration measured after 24 hrs by cell titer glo assay; type: functional; settings: read-out: LC50 (the source's name)
IMR-32 [11] = assay: Cytotoxicity against human IMR-32 cells assessed as combination index measured after 24 hrs by cell titer glo assay; type: functional

O=S(=O)(Nc1ccc(Br)cc1-c1nnn[nH]1)c1ccc(-c2ccc(Cl)cc2)cc1
inhibition [1]: 12% | CC50 (IMR-32 [2]): 7 nM | Activity (IMR-32 [3]): Active | CC50 (CHP-134 [4]): 11600 nM | CC50 (IMR-32 [5]): 3100 nM | Activity (CHP-134 [6]): Active | CC50 (CHP-134 [7]): 60 nM

COc1ccc(C2=C(c3ccc(C#N)c(F)c3)N=C(N3CCC(N)CC3)N(C)C2)cc1F
CC50 (IMR-32 [2]): 8.4 nM | CC50 (CHP-134 [7]): 16 nM

C#CCN(C)CCCOc1ccc(Cl)cc1Cl [CLORGILINE]
inhibition at 20 min, 1 µM [8]: 92%

CC(C)C[C@H](NC(=O)[C@H](Cc1ccccc1)NC(=O)c1cnccn1)B(O)O [BORTEZOMIB]
CC50 (IMR-32 [9]): 19 nM | CC50 (CHP-134 [10]): 106 nM | CI (IMR-32 [11]): 0.37
